Data as given in patent US20240025908A1, “COMPOUND USED AS KINASE INHIBITOR AND USE THEREOF” (TYK MEDICINES, INC., priority 2020, published 2024).

Key:
ROS1 = ROS1 (Homo sapiens (Human), UniProt P08922); experiment: Radio-tagged HotSpot kinase assay, ROS1; format: biochemical
Protocol: (§1) Inhibition of protein kinase activity by compounds was carried out on the Radio-tagged HotSpot kinase experimental platform of Reaction Biology Corporation. Fresh reaction solution (20 mM TIEPESpH 7.5, 10 mM MgCl2, 1 mM EGTA, 0.02% Brij35, 0.02 mg/ml BSA, 0.1 mM Na3VO4, 2 mM DTT, […]) containing corresponding substrates was prepared, cofactor and kinase to be tested were added into the above solution and mixed gently. Echo550 pipetting system was used to add the test compound DMSO solution to each well (the blank control group was added with the corresponding volume of DMSO), then 33P-ATP (with a final specific activity of 0.01 μCi/μL) was added to start the reaction. The reaction solution was incubated at room temperature for 120 minutes. Transferred the incubated reaction solution to P81 ion exchange chromatographic paper (Whatman #3698-915), eluted with […] phosphoric acid solution, and the amount of radioactive phosphorylated substrate remaining on the chromatographic paper was detected.

ROS1 (G2032R) = ROS1 (G2032R) (Homo sapiens (Human), UniProt P08922, G2032R); experiment: Radio-tagged HotSpot kinase assay, ROS1 (G2032R); format: biochemical
Sequence of ROS1 (G2032R) (P08922 28-2347 G2032R): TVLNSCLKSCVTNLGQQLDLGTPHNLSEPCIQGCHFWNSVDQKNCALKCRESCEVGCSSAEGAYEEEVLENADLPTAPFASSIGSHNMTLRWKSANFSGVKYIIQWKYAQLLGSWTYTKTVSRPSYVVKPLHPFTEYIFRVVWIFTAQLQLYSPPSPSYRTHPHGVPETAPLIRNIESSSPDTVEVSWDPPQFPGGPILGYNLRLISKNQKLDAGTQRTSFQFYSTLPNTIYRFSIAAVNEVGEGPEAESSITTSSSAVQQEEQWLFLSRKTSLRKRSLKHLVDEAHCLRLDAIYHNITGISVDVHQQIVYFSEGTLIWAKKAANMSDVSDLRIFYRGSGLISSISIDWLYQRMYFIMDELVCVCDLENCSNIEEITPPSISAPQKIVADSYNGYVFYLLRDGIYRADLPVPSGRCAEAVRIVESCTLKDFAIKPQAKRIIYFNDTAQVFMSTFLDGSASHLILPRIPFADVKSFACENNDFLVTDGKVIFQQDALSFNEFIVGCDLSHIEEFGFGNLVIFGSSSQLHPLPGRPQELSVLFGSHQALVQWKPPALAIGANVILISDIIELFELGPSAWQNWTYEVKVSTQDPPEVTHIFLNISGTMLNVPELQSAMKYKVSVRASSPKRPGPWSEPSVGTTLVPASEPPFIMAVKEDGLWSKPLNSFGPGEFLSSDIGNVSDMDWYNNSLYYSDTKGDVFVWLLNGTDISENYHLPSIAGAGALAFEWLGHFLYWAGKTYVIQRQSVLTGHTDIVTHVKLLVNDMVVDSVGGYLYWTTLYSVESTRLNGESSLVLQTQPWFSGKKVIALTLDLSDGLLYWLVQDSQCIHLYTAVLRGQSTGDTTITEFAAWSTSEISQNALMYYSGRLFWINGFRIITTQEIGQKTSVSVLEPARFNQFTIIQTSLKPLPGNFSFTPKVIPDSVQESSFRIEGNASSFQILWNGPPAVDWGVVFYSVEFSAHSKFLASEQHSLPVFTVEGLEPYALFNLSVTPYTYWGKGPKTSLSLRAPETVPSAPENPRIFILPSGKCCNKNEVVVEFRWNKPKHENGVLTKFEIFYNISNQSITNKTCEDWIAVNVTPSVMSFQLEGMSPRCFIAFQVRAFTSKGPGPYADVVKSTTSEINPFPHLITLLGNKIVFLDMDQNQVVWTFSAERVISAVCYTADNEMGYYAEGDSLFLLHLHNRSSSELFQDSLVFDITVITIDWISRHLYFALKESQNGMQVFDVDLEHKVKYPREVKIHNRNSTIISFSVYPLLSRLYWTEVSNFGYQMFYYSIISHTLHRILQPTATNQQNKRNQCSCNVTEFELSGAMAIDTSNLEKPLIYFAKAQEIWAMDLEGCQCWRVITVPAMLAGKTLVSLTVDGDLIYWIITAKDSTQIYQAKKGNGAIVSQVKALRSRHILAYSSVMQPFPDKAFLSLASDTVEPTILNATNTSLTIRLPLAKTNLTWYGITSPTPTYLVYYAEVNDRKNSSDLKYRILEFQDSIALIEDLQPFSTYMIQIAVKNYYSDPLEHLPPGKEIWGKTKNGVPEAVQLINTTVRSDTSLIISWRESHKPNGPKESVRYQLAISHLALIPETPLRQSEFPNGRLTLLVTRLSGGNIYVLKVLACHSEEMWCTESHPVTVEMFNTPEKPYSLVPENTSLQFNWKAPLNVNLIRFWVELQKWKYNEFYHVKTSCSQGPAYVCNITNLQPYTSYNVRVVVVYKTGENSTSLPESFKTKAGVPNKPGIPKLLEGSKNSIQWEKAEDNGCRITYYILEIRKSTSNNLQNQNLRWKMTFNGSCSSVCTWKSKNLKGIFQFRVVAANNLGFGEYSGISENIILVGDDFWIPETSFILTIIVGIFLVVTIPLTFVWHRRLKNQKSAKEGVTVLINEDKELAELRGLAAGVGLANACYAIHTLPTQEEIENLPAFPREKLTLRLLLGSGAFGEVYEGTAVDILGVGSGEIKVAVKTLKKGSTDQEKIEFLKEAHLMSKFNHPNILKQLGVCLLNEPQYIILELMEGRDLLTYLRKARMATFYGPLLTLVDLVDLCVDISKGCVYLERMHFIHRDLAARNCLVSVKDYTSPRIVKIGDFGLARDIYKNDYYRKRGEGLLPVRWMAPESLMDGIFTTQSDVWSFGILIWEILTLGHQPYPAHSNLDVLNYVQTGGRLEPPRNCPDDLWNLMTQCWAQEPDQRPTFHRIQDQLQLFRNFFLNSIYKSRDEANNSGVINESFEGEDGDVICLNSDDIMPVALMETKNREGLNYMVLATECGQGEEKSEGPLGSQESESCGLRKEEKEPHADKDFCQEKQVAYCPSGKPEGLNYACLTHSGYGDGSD
Protocol: as §1

TRKA = TRKA (Homo sapiens (Human), UniProt P04629); experiment: Radio-tagged HotSpot kinase assay, TRKA; format: biochemical
Sequence of TRKA (P04629 33-796): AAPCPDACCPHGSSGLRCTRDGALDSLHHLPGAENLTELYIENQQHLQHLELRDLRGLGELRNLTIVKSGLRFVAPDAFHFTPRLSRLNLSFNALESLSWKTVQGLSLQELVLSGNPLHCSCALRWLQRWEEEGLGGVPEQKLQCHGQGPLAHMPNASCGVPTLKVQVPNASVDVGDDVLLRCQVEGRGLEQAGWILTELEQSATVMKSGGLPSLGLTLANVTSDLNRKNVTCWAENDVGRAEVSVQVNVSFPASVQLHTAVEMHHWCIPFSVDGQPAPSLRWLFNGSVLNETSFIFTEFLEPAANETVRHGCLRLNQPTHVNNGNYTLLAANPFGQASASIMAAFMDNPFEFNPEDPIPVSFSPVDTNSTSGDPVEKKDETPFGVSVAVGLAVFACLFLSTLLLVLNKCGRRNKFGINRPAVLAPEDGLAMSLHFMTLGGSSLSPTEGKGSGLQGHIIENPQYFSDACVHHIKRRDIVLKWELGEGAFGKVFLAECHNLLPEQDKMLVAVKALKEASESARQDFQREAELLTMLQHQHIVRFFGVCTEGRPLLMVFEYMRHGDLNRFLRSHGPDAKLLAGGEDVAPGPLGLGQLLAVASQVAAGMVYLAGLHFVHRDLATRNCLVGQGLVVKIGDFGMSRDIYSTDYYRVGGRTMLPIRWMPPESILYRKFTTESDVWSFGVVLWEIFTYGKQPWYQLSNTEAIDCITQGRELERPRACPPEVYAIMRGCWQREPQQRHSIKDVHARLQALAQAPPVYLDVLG
Protocol: as §1

TRKA (G677C) = TRKA (G677C) (Homo sapiens, UniProt P04629, G667C); experiment: Radio-tagged HotSpot kinase assay, TRKA (G677C); format: biochemical; settings: read-out: TRKA (G677C) (IC50/nM)
Sequence of TRKA (G677C) (P04629 33-796 G667C limits assumed): as the sequence (P04629 33-796) above, with G635C counted along it
Protocol: as §1

ALK = ALK (Homo sapiens (Human), UniProt Q9UM73); experiment: Radio-tagged HotSpot kinase assay, ALK; format: biochemical
Sequence of ALK (Q9UM73 19-1620): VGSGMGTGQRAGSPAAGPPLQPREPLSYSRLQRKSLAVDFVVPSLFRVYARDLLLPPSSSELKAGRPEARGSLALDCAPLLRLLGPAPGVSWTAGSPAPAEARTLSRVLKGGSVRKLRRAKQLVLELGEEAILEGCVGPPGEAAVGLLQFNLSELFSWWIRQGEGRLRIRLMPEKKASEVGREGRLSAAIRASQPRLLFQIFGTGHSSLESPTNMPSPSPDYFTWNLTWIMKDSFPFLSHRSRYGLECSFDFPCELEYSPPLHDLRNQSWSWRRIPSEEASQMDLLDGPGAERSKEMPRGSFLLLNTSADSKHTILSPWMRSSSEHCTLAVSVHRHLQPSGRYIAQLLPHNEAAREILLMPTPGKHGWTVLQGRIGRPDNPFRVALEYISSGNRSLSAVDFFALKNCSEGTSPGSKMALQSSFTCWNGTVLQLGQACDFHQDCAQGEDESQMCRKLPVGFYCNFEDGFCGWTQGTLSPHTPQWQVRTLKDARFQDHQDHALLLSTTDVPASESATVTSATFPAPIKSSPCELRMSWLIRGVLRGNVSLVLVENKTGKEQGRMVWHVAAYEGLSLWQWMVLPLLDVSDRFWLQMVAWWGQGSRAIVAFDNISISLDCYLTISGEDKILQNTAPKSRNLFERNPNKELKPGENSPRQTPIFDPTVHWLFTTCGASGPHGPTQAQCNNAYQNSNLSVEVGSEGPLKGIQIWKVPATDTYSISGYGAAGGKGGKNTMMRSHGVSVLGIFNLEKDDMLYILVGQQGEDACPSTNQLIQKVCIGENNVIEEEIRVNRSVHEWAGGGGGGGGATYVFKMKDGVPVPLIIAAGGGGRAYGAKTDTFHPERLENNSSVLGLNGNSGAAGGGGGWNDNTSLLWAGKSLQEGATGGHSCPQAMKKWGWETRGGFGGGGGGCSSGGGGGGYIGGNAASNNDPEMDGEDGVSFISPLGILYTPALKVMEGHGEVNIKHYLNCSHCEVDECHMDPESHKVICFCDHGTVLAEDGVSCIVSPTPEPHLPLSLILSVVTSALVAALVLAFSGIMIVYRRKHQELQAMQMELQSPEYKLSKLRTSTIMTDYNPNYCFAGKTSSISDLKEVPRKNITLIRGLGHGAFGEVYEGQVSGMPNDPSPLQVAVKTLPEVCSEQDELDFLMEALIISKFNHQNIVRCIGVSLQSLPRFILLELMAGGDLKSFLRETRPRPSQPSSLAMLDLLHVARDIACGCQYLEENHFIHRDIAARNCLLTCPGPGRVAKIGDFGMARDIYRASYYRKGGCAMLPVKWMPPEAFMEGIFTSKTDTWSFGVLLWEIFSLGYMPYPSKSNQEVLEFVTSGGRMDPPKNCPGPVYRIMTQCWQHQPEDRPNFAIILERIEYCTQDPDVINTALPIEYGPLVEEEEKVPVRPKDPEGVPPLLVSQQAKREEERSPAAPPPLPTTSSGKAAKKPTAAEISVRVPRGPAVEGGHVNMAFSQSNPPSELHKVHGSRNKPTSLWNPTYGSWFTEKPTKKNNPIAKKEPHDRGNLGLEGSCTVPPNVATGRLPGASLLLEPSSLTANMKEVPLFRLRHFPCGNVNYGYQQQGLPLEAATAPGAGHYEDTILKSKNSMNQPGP
Protocol: as §1

ALK (G1202R) = ALK (G1202R) (Homo sapiens (Human), UniProt Q9UM73, G1202R); experiment: Radio-tagged HotSpot kinase assay, ALK (G1202R); format: biochemical
Sequence of ALK (G1202R) (Q9UM73 19-1620 G1202R): as the sequence (Q9UM73 19-1620) above, with G1184R counted along it
Protocol: as §1

Ba/F3-CD74-ROS1-G2032R = experiment: Inhibition of cell proliferation (CellTiter-Glo), Ba/F3-CD74-ROS1-G2032R; format: cell-based; settings: 72 hours
Protocol: (§2) The experiment of inhibiting cell proliferation by compounds was carried out in Hefei Zhongkeprecedo Biomedical Technology Co., Ltd. The Ba/F3 engineered cell line stably transfected with different kinase genes was recovered with RPMI 1640 medium (Biological Industries, Israel)+10% fetal bovine serum (Biological Industries, Israel)+1% double antibody (Penicillin Streptomycin solution, Coring, USA) and cultivated two generations. The logarithmic growth phase cell suspension was taken, and 2000 cells/well were inoculated on 96-well white cell culture plate (Corning 3917, NY, USA) with a volume of 95 μL per well. 5 μL of 20×DMSO solution of the compound to be tested was added into the culture plate containing 95 μL of cell suspension. The blank control group was added with corresponding volume of DMSO, mixed well, and incubated in a 5% CO2 incubator at 37° C. for 72 hours. CellTiter-Glo was used to detect cell viability.

Ba/F3-LMNA-NTRK1-G595R = experiment: Inhibition of cell proliferation (CellTiter-Glo), Ba/F3-LMNA-NTRK1-G595R; format: cell-based; settings: 72 hours
Protocol: as §2

Ba/F3-TEL-ALK-G1202R = experiment: Inhibition of cell proliferation (CellTiter-Glo), Ba/F3-TEL-ALK-G1202R; format: cell-based; settings: 72 hours
Protocol: as §2

[1] = test system: Ba/F3-CD74-ROS1-G2032R cells; experiment: In vivo efficacy study, subcutaneous Ba/F3-CD74-ROS1-G2032R tumor; design: species or system BALB/c nude mice; settings: 20 mg/kg P.O. BID × 2 weeks
Protocol: Cell culture: Ba/F3-CD74-ROS1-G2032R cell line was cultured with 1640 medium (Biological Industries)+10% fetal bovine serum (BI)+1% double antibody (Penicillin Streptomycin solution, Corning, USA) at 37° C. with 5% CO2. Two passages were performed for one week. When the cell saturation was 80%-90% and the number reached the required level, the cells were collected, counted and inoculated.
Animals: BALB/c nude mice, female, 6-8 weeks of age, weighing 15-20 g. A total of 6 mice were required, provided by Beijing Vital River Laboratory Animal Technology Co., Ltd.
Tumor inoculation: 0.2 ml (2×10^6) Ba/F3-CD74-ROS1-G2032R cells (plus stromal gel, volume ratio 1:1) were inoculated subcutaneously on the right posterior dorsum of each mouse, and group dosing was started when the average tumor volume reached about 150-200 mm^3.
Experimental index: Tumor volume and body weight were measured twice a week. Tumor volume was measured by vernier calipers with the formula TV=0.5 a×b2, wherein a is the long diameter of the tumor and b is the short diameter of the tumor.

Sequence of ROS1 (P08922 28-2347): as the sequence (P08922 28-2347 G2032R) above, with R2005G counted along it

SMILES	IC50 (ROS1)	IC50 (ROS1 (G2032R))	IC50 (TRKA)	IC50 (TRKA (G677C))	IC50 (ALK)	IC50 (ALK (G1202R))	IC50 (Ba/F3-CD74-ROS1-G2032R)	IC50 (Ba/F3-LMNA-NTRK1-G595R)	IC50 (Ba/F3-TEL-ALK-G1202R)	Tumor Volume ([1]; 0 days)	Tumor Volume ([1]; 4 days)	Tumor Volume ([1]; 7 days)	Tumor Volume ([1]; 11 days)	Tumor Volume ([1]; 14 days)
C[C@@H](Nc1ccn2ncc(C3=NC(=O)C(C)(C)N3)c2n1)c1cc(F)ccc1OC(F)F [Example 6]	< 0.5 nM	< 0.5 nM	< 0.5 nM	< 0.5 nM	0.5 to 5 nM	5 to 50 nM	24.1 nM	13.4 nM	110 nM	–	–	–	–	–
C[C@@H](Nc1ccn2ncc(NC3=NCC(C)(C)N3)c2n1)c1cc(F)cc(F)c1F [Example 17]	0.5 to 5 nM	5 to 50 nM	0.5 to 5 nM	5 to 50 nM	50 to 500 nM	50 to 500 nM	–	–	–	–	–	–	–	–
C[C@@H](Nc1ccn2ncc(C(=O)NOCCO)c2n1)c1cc(F)cc(F)c1F [Example 13]	5 to 50 nM	50 to 500 nM	5 to 50 nM	50 to 500 nM	50 to 500 nM	50 to 500 nM	–	–	–	–	–	–	–	–
COc1ccc(F)cc1[C@@H](C)Nc1ccn2ncc(OC3=NC(C)(C)CN3)c2n1 [Example 14]	0.5 to 5 nM	5 to 50 nM	0.5 to 5 nM	5 to 50 nM	50 to 500 nM	50 to 500 nM	–	–	–	–	–	–	–	–
CCCOC(=O)/N=C(\N)c1cnn2ccc(N[C@H](C)c3cc(F)cc(F)c3F)nc12 [Example 11]	0.5 to 5 nM	5 to 50 nM	0.5 to 5 nM	5 to 50 nM	50 to 500 nM	50 to 500 nM	–	–	–	–	–	–	–	–
C[C@@H](Nc1ccn2ncc(C3=NOCCN3)c2n1)c1cc(F)cc(C(F)(F)F)c1F [Example 19]	0.5 to 5 nM	5 to 50 nM	0.5 to 5 nM	5 to 50 nM	5 to 50 nM	50 to 500 nM	–	–	–	–	–	–	–	–
C[C@@H](Nc1ccn2ncc(C3=NN=CC(C)(C)N3)c2n1)c1cc(F)cc(F)c1F [Example 5]	0.5 to 5 nM	5 to 50 nM	0.5 to 5 nM	5 to 50 nM	5 to 50 nM	5 to 50 nM	–	–	–	–	–	–	–	–
C[C@@H](Nc1ccn2ncc(OC3=NCC(C)(C)N3)c2n1)c1cc(F)cc(F)c1F [Example 15]	0.5 to 5 nM	5 to 50 nM	0.5 to 5 nM	5 to 50 nM	50 to 500 nM	50 to 500 nM	–	–	–	–	–	–	–	–
C[C@@H](Nc1ccn2ncc(C3=NOCC(C)(C)N3)c2n1)c1cc(F)ccc1OC(F)F [Example 16]	0.5 to 5 nM	5 to 50 nM	0.5 to 5 nM	5 to 50 nM	5 to 50 nM	50 to 500 nM	–	–	–	–	–	–	–	–
COc1ccc(F)cc1[C@@H](C)Nc1ccn2ncc(NC3=NC(C)(C)CO3)c2n1 [Example 1]	0.5 to 5 nM	0.5 to 5 nM	0.5 to 5 nM	0.5 to 5 nM	0.5 to 5 nM	5 to 50 nM	–	–	–	–	–	–	–	–
C[C@@H](Nc1ccn2ncc(C3=NOCCN3)c2n1)c1cc(F)ccc1C(F)F [Example 28]	0.5 to 5 nM	50 to 500 nM	0.5 to 5 nM	50 to 500 nM	5 to 50 nM	50 to 500 nM	–	–	–	–	–	–	–	–
C[C@@H](Nc1ccn2ncc(C3=NOCCN3)c2n1)c1cc(F)ccc1C(F)(F)F [Example 27]	0.5 to 5 nM	50 to 500 nM	0.5 to 5 nM	50 to 500 nM	5 to 50 nM	50 to 500 nM	–	–	–	–	–	–	–	–
CONC(=O)c1cnn2ccc(N[C@H](C)c3cc(F)cc(F)c3F)nc12 [Example 24]	5 to 50 nM	50 to 500 nM	5 to 50 nM	50 to 500 nM	5 to 50 nM	50 to 500 nM	–	–	–	–	–	–	–	–
COc1c(F)cc(F)cc1[C@@H](C)Nc1ccn2ncc(NC3=NC(C)(C)CO3)c2n1 [Example 18]	0.5 to 5 nM	5 to 50 nM	0.5 to 5 nM	5 to 50 nM	5 to 50 nM	50 to 500 nM	–	–	–	–	–	–	–	–
COc1ccc(F)cc1[C@@H](C)Nc1ccn2ncc(NC3=NC(C)(C)CN3)c2n1 [Example 12]	0.5 to 5 nM	5 to 50 nM	0.5 to 5 nM	5 to 50 nM	5 to 50 nM	5 to 50 nM	–	–	–	–	–	–	–	–

Now from value to compound, other results behind:

IC50 (ROS1)	IC50 (ROS1 (G2032R))	IC50 (TRKA)	IC50 (TRKA (G677C))	IC50 (ALK)	IC50 (ALK (G1202R))	IC50 (Ba/F3-CD74-ROS1-G2032R)	IC50 (Ba/F3-LMNA-NTRK1-G595R)	SMILES	IC50 (Ba/F3-TEL-ALK-G1202R)	Tumor Volume ([1]; 0 days)	Tumor Volume ([1]; 4 days)	Tumor Volume ([1]; 7 days)	Tumor Volume ([1]; 11 days)	Tumor Volume ([1]; 14 days)
< 0.5 nM	< 0.5 nM	< 0.5 nM	< 0.5 nM	0.5 to 5 nM	5 to 50 nM	31.6 nM	6.1 nM	C[C@@H](Nc1ccn2ncc(C3=NOCCN3)c2n1)c1cc(F)ccc1OC(F)F [Example 9]	75.6 nM	–	–	–	–	–
0.5 to 5 nM	0.5 to 5 nM	0.5 to 5 nM	0.5 to 5 nM	0.5 to 5 nM	5 to 50 nM	–	–	C[C@@H](Nc1ccn2ncc(NC3=NC(C)(C)CO3)c2n1)c1cc(F)cc(F)c1F [Example 2]	–	–	–	–	–	–
< 0.5 nM	< 0.5 nM	< 0.5 nM	< 0.5 nM	0.5 to 5 nM	0.5 to 5 nM	–	–	C[C@@H](Nc1ccn2ncc(C3=NOCCN3)c2n1)c1cc(F)cc(F)c1F [Example 3]	–	–	–	–	–	–
< 0.5 nM	< 0.5 nM	< 0.5 nM	< 0.5 nM	0.5 to 5 nM	5 to 50 nM	–	–	COc1ncc(F)cc1[C@@H](C)Nc1ccn2ncc(C3=NC(=O)C(C)(C)N3)c2n1 [Example 10]	–	–	–	–	–	–
< 0.5 nM	0.5 to 5 nM	< 0.5 nM	0.5 to 5 nM	0.5 to 5 nM	5 to 50 nM	–	–	CCOc1ncc(F)cc1[C@@H](C)Nc1ccn2ncc(C3=NOCCN3)c2n1 [Example 22]	–	–	–	–	–	–
< 0.5 nM	0.5 to 5 nM	< 0.5 nM	0.5 to 5 nM	0.5 to 5 nM	5 to 50 nM	–	–	C[C@@H](Nc1ccn2ncc(C3=NC(=O)C(C)(C)N3)c2n1)c1cc(F)ccc1OC(F)(F)F [Example 21]	–	–	–	–	–	–
< 0.5 nM	0.5 to 5 nM	< 0.5 nM	0.5 to 5 nM	5 to 50 nM	50 to 500 nM	–	–	C[C@@H](Nc1ccn2ncc(C3=NC(=O)C(C)(C)N3)c2n1)c1cc(F)cnc1OCC(F)(F)F [Example 23]	–	–	–	–	–	–
< 0.5 nM	< 0.5 nM	< 0.5 nM	< 0.5 nM	0.5 to 5 nM	5 to 50 nM	–	–	C[C@@H](Nc1ccn2ncc(C3=NC(=O)C(C)(C)N3)c2n1)c1cc(F)cc(F)c1F [Example 8]	–	–	–	–	–	–
< 0.5 nM	0.5 to 5 nM	< 0.5 nM	0.5 to 5 nM	0.5 to 5 nM	5 to 50 nM	–	–	COc1c(F)cc(F)cc1[C@@H](C)Nc1ccn2ncc(C3=NC(=O)C(C)(C)N3)c2n1 [Example 20]	–	–	–	–	–	–
< 0.5 nM	0.5 to 5 nM	< 0.5 nM	0.5 to 5 nM	0.5 to 5 nM	5 to 50 nM	–	–	C[C@@H](Nc1ccn2ncc(C3=NOCC(C)(C)N3)c2n1)c1cc(F)cc(F)c1F [Example 4]	–	167.31 mm^3	216.42 mm^3	292.24 mm^3	375.67 mm^3	688.91 mm^3
< 0.5 nM	< 0.5 nM	< 0.5 nM	< 0.5 nM	0.5 to 5 nM	5 to 50 nM	54.6 nM	36.1 nM	COc1ccc(F)cc1[C@@H](C)Nc1ccn2ncc(C3=NC(=O)C(C)(C)N3)c2n1 [Example 7]	–	–	–	–	–	–
< 0.5 nM	0.5 to 5 nM	< 0.5 nM	0.5 to 5 nM	0.5 to 5 nM	5 to 50 nM	–	–	C[C@@H](Nc1ccn2ncc(C3=NC(=O)C(C)(C)N3)c2n1)c1cc(F)cnc1OC(F)(F)F [Example 25]	–	–	–	–	–	–
